The pKa sets of Baltruschat and Czodrowski (2020)

Conditions: acidic group

Row | Compound | pKa
1 | N#CC(C#N)=NNc1ccccc1 | 6.55
2 | CC(=O)c1ccc([N+](=O)[O-])cc1C(=O)O | 3.27
3 | O=C(O)CCCCC1CCSS1 (stereo unspecified) | 4.82
4 | O=c1oc2cc(O)ccc2cc1-c1ccccc1 | 7.8
5 | [O-]C(O)=C1c2ccccc2-c2ccccc21 | 9.61
6 | COCC1=C(C(=O)O)CCC1 | 4.5
7 | NC(=O)NOCCC([NH3+])C(=O)O (stereo unspecified) | 2.5
8 | O=C(O)[C@@H]1O[C@H](Oc2ccc3ccc[nH+]c3c2)[C@@H](O)[C@H](O)[C@H]1O | 3
9 | [NH3+]CCc1ccc(O)cc1 | 9.42
10 | NC(=O)C[C@H](N)C(N)=O | 7
11 | N#CC(C#N)=NNc1ccc(Cl)cc1 | 6.15
12 | S=C(Nc1ccc(Cl)c(Cl)c1)c1ccccc1 | 9.96
13 | N#CC(C#N)=NNc1ccccc1O | 6.1
14 | C/C(=N\O)NO | 10.8
15 | C[n+]1cccc2c(O)cccc21 | 6.12
16 | O=C(O)c1ccc([N+](=O)[O-])s1 | 2.68
17 | O=C1CCCC2CCCC(=O)C12 (stereo unspecified) | 11.1
18 | O=C(O)C1CCCOC1 (stereo unspecified) | 4.25
19 | CC(=O)CC(=O)CC(C)C | 9.07
20 | O=C(O)c1cc([N+](=O)[O-])ccc1Sc1ccccc1 | 3.22
21 | Oc1cccc2cc3ccccc3cc12 | 9.88

Row | Compound | pKa
22 | CCC(CC(C)C)OO (stereo unspecified) | 12.8
23 | O=[N+]([O-])c1ccc(-c2nnn[nH]2)cc1 | 3.08
24 | O=S(Cc1ccccc1)c1cnn[nH]1 (stereo unspecified) | 6.09
25 | CN(C)S(=O)(=O)c1ccc(NS(=O)(=O)c2ccc(N)cc2)cc1 | 6.23
26 | CC(=O)C(Cc1ccccc1)C(C)=O | 10.5
27 | C[N+]1(CC(=O)O)CCCCC1 | 2.01
28 | NC1=[NH+][C@H]2C[C@@H](N1)[NH2+][C@@H]2C(=O)O | 1.3
29 | C(C[NH2+]CCc1nnn[nH]1)[NH2+]CCc1nnn[nH]1 | 3.11
30 | [NH3+]C/C=C\C(=O)O | 3.53
31 | O=C1CCC(=O)C1=O | 8.48
32 | O=S(=O)(Nc1ccc(Br)cc1)c1ccccc1 | 7.78
33 | C[N+](C)(C)Cc1cccc(O)c1 | 8.89
34 | C=CC[NH+](CC=C)CCCNC(=O)/C=N/O | 8.14
35 | CC/C(C)=C/C(=O)O | 5.14
36 | O=C([O-])c1ccccc1-n1nc(O)cc1-c1ccccc1 | 12.5
37 | COCC(=O)O | 3.53
38 | C/N=C(/SC)c1ccccc1 | 6.42
39 | CSCC(=O)O | 3.67
40 | CC1(C)NC(C)(C)[N+](O)=C1c1ccccc1 | 2.06
41 | Cc1cc[n+](O)cc1 | 1.29
42 | CC[C@H](C(=O)O)[C@@]1(O)C[C@H]2CC[C@@H]1C2 | 4.07

The next lines start with the values.

Row | pKa | Compound
43 | 11 | CC(C)(S)CN
44 | 8.62 | COc1ccc(O)c(Br)c1
45 | 8.94 | NS(=O)(=O)c1ccc(Cl)c(Cl)c1
46 | 4.17 | CCOc1cccc(C(=O)O)c1
47 | 6.15 | CC(=O)[n+]1ccc(C)cc1
48 | 8.89 | CONC(=O)c1ccccc1
49 | 11 | COc1ccc(NC(=S)c2cccc(Br)c2)cc1
50 | 9.44 | Nc1ccc(S(=O)(=O)Nc2nccc(N)n2)cc1
51 | 5.5 | Cc1cc([N+](=O)[O-])ccc1NN=C(C#N)C#N
52 | 10.6 | CCc1ccc(C(C)C)cc1O
53 | 7.22 | Cc1cc([N+](=O)[O-])cc(C)c1O
54 | 4.44 | Cc1cccc(/C=C/C(=O)O)c1
55 | 7.05 | CC(c1cccc(Cl)c1)[N+](=O)[O-] (stereo unspecified)
56 | 4.24 | Cc1cc(C(=O)O)cs1
57 | 7.44 | Cc1cc(C)nc(NS(=O)(=O)c2ccc(N)cc2)n1
58 | 7.6 | Cc1cc(O)ccc1[S+](C)C
59 | 9.21 | Cc1ncnc2nc[nH]c12
60 | 4.27 | COc1ccccc1/C=C\C(=O)O
61 | 10 | COc1ccc(O)c(N)c1
62 | 9.15 | CCOC(=O)c1c(C)nc(C)c(C(=O)OCC)c1-c1ccc(NS(=O)(=O)c2ccc(N)cc2)cc1
63 | 11.4 | N#CCc1ccc(C#N)cc1[N+](=O)[O-]
64 | 8.12 | CC1(C)C=CC(C)(c2cc3ccc(=O)oc3cc2O)CC1 (stereo unspecified)

Same assay, conditions: basic group

Row | Compound | pKa
65 | N#CC(C#N)=NNc1ccccc1 | -0.82
66 | CCOC(=O)c1ccc(CCN)cc1 | 9.58
67 | COC(=O)[C@@H]1CSCN1 | 3.92
68 | C=C(C)C(=O)OCCN(CC)CC | 8.66
69 | CN1C2CCC(C2)N1C | 6.89
70 | O=C([O-])c1cc2cc(Cn3ccnc3)ccc2s1 | 6.77
71 | C[NH+](C)CCCCCNc1c2ccccc2nc2cccc([N+](=O)[O-])c12 | 7.4
72 | CSc1nc(N)n[nH]1 | 3.27
73 | C[Se]CCN | 9.53
74 | CC(C)N | 10.6
75 | N#CC(C#N)=NNc1ccc(Cl)cc1 | -0.79
76 | CCCCNc1ncnc2c1cnn2C | 4.22
77 | Cn1cnc(C(=O)[O-])c1C(=O)[O-] | 8
78 | CCN(CC)CCCC(C)=O | 10.1
79 | CC(O)C[NH+](CCCN1CCOCC1)CC(C)O (stereo unspecified) | 5.5
80 | Brc1cccnc1 | 2.94
81 | C/C(=N\O)NO | 4.95
82 | C[NH2+]CCCNc1c2ccccc2nc2cccc([N+](=O)[O-])c12 | 6.2
83 | C[C@@H](N)C(=O)N1CCC[C@H]1C(=O)[O-] | 8.38
84 | [NH3+]CCc1cccnc1 | 4.64
85 | CN(C)CCN | 9.53
86 | C[C@H]1CN[C@@H](C)CN1 | 9.98
87 | c1ccc2c(c1)CNCCCNCc1ccccc1OCCO2 | 9.82

Row | Compound | pKa
88 | Nc1ccc(-c2ccc(/[NH+]=C/c3ccc(O)cc3)cc2)cc1 | 5.05
89 | CCCN(C)N(C)CCC | 7.05
90 | CCN(CC)CC(O)CO (stereo unspecified) | 9.77
91 | c1ccc(-n2cnnn2)cc1 | -3.41
92 | Cc1cccc(N)c1 | 4.7
93 | c1cncc(-c2ccoc2)c1 | 4.93
94 | O=C(CCCN1CCOCC1)c1ccccc1 | 7.26
95 | CCCCNCC/C(N)=N/O | 9.6
96 | [O-]c1cnc2ccccc2n1 | 9.1
97 | CCCCCCCCCNCc1ccc(C)cc1 | 9.48
98 | N#CCCNCCC#N | 5.23
99 | Nc1ccc(Cl)cc1N | 4.3
100 | CNc1ccc(O)cc1 | 6
101 | C#CC(C)(C)NC(C)(C)C=C | 8.2
102 | CCN(CC)CCSC | 9.62
103 | [S-]CCNCCc1ccccc1 | 10.3
104 | CC(N)=S | -2.51
105 | Clc1ccc2[nH]cnc2c1 | 4.86
106 | Nc1nc(N)nc([O-])n1 | 9.4
107 | NCC/C(N)=N/O | 9.15
108 | CC(C)SCCN | 9.23
109 | O=C([O-])CN=C1CCCC1 | 8.72

Now from value to molecule:

Row | pKa | Compound
110 | 8.48 | CC(C)(S)CN
111 | -4.48 | Cc1cncc(C)[nH+]1
112 | 3.15 | Cc1ncncc1N
113 | 4.47 | Cn1c(-c2ccccn2)nc2ccccc21
114 | 3.18 | Cc1cc(-c2ccccc2)nn2c(C[NH+](C)C)cnc12
115 | 1 | Nc1ccccc1S(N)(=O)=O
116 | 5.12 | Cc1cc(-c2ccccc2)n[n+](C)c1NCCN1CCOCC1
117 | 5.62 | Cc1cnc2c(ccc3cccnc32)c1C
118 | -0.74 | Cc1cc([N+](=O)[O-])ccc1NN=C(C#N)C#N
119 | 2.35 | Cc1cc(C)nc(NS(=O)(=O)c2ccc(N)cc2)n1
120 | 2.6 | Cc1ncnc2nc[nH]c12
121 | 9.87 | Cc1ccc(OC(=O)CCCCN(C)C)cc1
122 | 9.54 | COc1cc(CN)c(C)cc1N
123 | 5.04 | Nc1cccc(N)c1
124 | 4.06 | CN(C)c1ncnc2c1cnn2C
125 | 8.01 | CN(C)Cc1cccc(O)c1O
126 | 9.29 | Cc1cc([O-])[nH+]c([O-])n1
127 | 3.54 | Nc1cc(Cl)cc(C[NH3+])c1
128 | 8.13 | COCCc1nc(C)c[nH]1
129 | 3.43 | COCc1cccc(COC)n1
130 | 4.52 | Cc1cc(-c2ccccn2)nn1C
131 | 3.73 | Nc1nc2ccccc2o1
